14 compounds from BindingDB's records for patent US12378251 (Shanghai Institute Of Materia Medica, 2025) can be followed below.

Chain of NEDD8-activating enzyme E1 regulatory subunit/NEDD8-activating enzyme E1 catalytic subunit (Q13564 whole entry): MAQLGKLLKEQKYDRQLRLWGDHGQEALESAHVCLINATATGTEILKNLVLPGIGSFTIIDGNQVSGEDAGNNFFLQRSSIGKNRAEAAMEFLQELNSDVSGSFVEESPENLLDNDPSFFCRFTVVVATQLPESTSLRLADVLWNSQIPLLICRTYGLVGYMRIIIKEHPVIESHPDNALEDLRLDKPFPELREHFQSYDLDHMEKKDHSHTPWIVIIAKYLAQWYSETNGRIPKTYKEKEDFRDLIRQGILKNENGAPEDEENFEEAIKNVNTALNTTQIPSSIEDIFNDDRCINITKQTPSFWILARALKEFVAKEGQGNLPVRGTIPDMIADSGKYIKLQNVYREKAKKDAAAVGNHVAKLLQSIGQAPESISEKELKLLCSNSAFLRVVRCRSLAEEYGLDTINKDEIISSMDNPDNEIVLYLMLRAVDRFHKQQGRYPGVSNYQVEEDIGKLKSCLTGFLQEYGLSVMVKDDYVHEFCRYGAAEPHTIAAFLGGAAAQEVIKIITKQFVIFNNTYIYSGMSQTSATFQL
Chain of NEDD8-activating enzyme E1 regulatory subunit/NEDD8-activating enzyme E1 catalytic subunit (Q8TBC4 whole entry): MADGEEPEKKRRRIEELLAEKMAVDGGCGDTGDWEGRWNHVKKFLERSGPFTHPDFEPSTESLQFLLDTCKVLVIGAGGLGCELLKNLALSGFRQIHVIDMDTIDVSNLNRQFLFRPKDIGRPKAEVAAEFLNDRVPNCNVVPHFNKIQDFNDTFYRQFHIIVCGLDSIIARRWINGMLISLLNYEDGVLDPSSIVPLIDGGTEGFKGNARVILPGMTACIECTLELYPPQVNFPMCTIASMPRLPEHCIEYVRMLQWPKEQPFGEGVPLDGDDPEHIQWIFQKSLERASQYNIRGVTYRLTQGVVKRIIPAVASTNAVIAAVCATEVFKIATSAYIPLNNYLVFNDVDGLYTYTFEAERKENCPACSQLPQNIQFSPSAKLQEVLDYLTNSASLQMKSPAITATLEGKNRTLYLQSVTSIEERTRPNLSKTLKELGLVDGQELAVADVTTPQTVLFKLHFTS

The test concerns the target NEDD8-activating enzyme E1 regulatory subunit/NEDD8-activating enzyme E1 catalytic subunit (Human, UniProt Q8TBC4). Description: Test of Inhibiting NAE Enzyme Activity at the Molecular Level. The method, then: 1. Preliminary Evaluation Experiment of Inhibiting NAE Enzyme Activity at the Molecular Level by CompoundsHomogeneous Time-Resolved Fluorescence (HTRF) technology was used to detect the in vitro inhibitory effect of the compound on NAE enzyme activity. […] IC50 was calculated with a GraphPad software.
In the case of `COC(=O)[C@H]1C=C[C@@H](Nc2ncnc3c2nnn3C2CC(O)C(COS(N)(=O)=O)C2)C1` (some centres undefined) [US12378251, Compound S20], the 50% inhibitory concentration (IC50) (commonly the concentration that inhibits the measured activity by half) was less than 100 nM. Regarding `NS(=O)(=O)OCC1CC(n2nnc3c(Nc4cnc5ccccn45)ncnc32)CC1O` (centres undefined) [US12378251, Compound S19], the IC50 was more than 1000 nM. Take `NS(=O)(=O)OCC1CC(n2nnc3c(N[C@H]4CCc5ccccc54)ncnc32)CC1O` (some centres undefined) [US12378251, Compound S1]: the IC50 was less than 100 nM. Take `NS(=O)(=O)OCC1CC(n2nnc3c(N[C@@H]4c5ccccc5C[C@@H]4O)ncnc32)CC1O` (some centres undefined) [US12378251, Compound S9]: the IC50 is less than 100 nM. Then `NS(=O)(=O)OCC1CC(n2nnc3c(NC4CCCC4)ncnc32)CC1O` (centres undefined) [US12378251, Compound S21], with more than 1000 nM; and `NS(=O)(=O)OCC1CC(n2nnc3c(Nn4ccc5ccccc54)ncnc32)CC1O` (centres undefined) [US12378251, Compound S18], with more than 1000 nM; and `NS(=O)(=O)OCC1CC(n2nnc3c(NCc4cccs4)ncnc32)CC1O` (centres undefined) [US12378251, Compound S3], with less than 100 nM. `NS(=O)(=O)OCC1CC(n2nnc3c(N[C@H]4CC5(CCNCC5)c5ccccc54)ncnc32)CC1O` (some centres undefined) [US12378251, Compound S14]: the IC50 was less than 100 nM.

`NS(=O)(=O)OCC1CC(n2nnc3c(NCCc4ccccc4)ncnc32)CC1O` (centres undefined) [US12378251, Compound S6]: the IC50 is less than 100 nM.

As for `NS(=O)(=O)OCC1CC(n2nnc3c(NCc4ccco4)ncnc32)CC1O` (centres undefined) [US12378251, Compound S4], the IC50 was less than 100 nM.

Compound `NS(=O)(=O)OC[C@@H]1C[C@@H](n2nnc3c(N[C@@H]4C[C@H]4c4ccc(F)c(F)c4)ncnc32)CC1O` (some centres undefined) [US12378251, Compound S16] registered an IC50 of more than 1000 nM. The compound `NS(=O)(=O)OCC1CC(n2nnc3c(NCc4ccccc4F)ncnc32)CC1O` (centres undefined) [US12378251, Compound S2] had an IC50 of less than 100 nM.

For the compound `NS(=O)(=O)OCC1CC(n2nnc3c(Nc4n[nH]c5ccccc45)ncnc32)CC1O` (centres undefined) [US12378251, Compound S17], the half-maximal inhibitory concentration (IC50) was more than 1000 nM. Then `CCCCCCNc1ncnc2c1nnn2C1CC(O)C(COS(N)(=O)=O)C1` (centres undefined) [US12378251, Compound S8], with less than 100 nM.
